From ChEMBL document CHEMBL5579824, “Novel Hsp90-Targeting PROTACs: Enhanced synergy with cisplatin in combination therapy of cervical cancer” (Eur J Med Chem, 2024)
Calls of active or inactive are those of the source. The rule behind the calls is not given here.

Tests used:
SiHa [1] = test: Synergistic antiproliferative activity against human SiHa cells assessed as combination index at 0.05 uM incubated for 72 hrs in presence of 1 uM cisplatin by CCK-8 assay; assay type: functional
SiHa [2] = test: Synergistic antiproliferative activity against human SiHa cells assessed as combination index at 0.5 uM incubated for 72 hrs in presence of 0.1 uM cisplatin by CCK-8 assay; assay type: functional
SiHa [3] = test: Induction of cell cycle arrest in human SiHa cells assessed as accumulation of cells at G1 pahse at 2.5 uM incubated after 48 hrs by PI staining based flow cytometry (reference value: 83.90 %); assay type: functional
[4] = molecular target: T1, Protein cereblon/Heat shock protein HSP 90-alpha/Heat shock protein HSP 90-beta (Homo sapiens) (UniProt P07900+P08238+Q96SW2); test: Protac activity at CRBN/Hsp90 in human SiHa cells assessed as induction of Hsp90 degradation at 0.05 uM incubated for 2 hrs in presence of SNX-5422 by Western blot analysis; assay type: cell-based
SiHa [5] = test: Synergistic antiproliferative activity against human SiHa cells assessed as combination index at 10 uM incubated for 72 hrs in presence of 0.03 uM cisplatin by CCK-8 assay; assay type: functional
[6] = molecular target: T1, Protein cereblon/Heat shock protein HSP 90-alpha/Heat shock protein HSP 90-beta (Homo sapiens); test: Protac activity at CRBN/Hsp90 in human SiHa cells assessed as induction of Hsp90 degradation at 0.05 uM incubated for 10 hrs by Western blot analysis; assay type: cell-based
[7] = molecular target: T1, Protein cereblon/Heat shock protein HSP 90-alpha/Heat shock protein HSP 90-beta (Homo sapiens); test: Protac activity at CRBN/Hsp90 in human Ca-Ski cells assessed as induction of Hsp90 degradation (causing hook effect) at > 0.075 uM incubated for 10 hrs by Western blot analysis; assay type: cell-based
SiHa [8] = test: Induction of apoptosis in human SiHa cells assessed as viable cells at 1 uM incubated after 48 hrs by annexin V-FITC/PI staining based flow cytometry (reference value: 90.4 %); assay type: functional; conditions: read-out: Activity
SiHa [9] = test: Synergistic antiproliferative activity against human SiHa cells assessed as combination index at 0.5 uM incubated for 72 hrs in presence of 1 uM cisplatin by CCK-8 assay; assay type: functional
SiHa [10] = test: Synergistic antiproliferative activity against human SiHa cells assessed as combination index at 5 uM incubated for 72 hrs in presence of 10 uM cisplatin by CCK-8 assay; assay type: functional

Activity [4]: inactive
Activity [6]: Active
Activity [7]: inactive
Structure (SMILES): CC1(C)CC(=O)c2c(C(F)(F)F)nn(-c3ccc(C(N)=O)c(N[C@H]4CC[C@H](OC(=O)CNC(=O)CCCCCCCNc5cccc6c5CN(C5CCC(=O)NC5=O)C6=O)CC4)c3)c2C1 (stereo not given in full)
CI (SiHa [1]): 0.74
CI (SiHa [2]): 0.13
Activity (SiHa [3]): 53.29%
CI (SiHa [5]): 2.11
viability at 1 µM (SiHa [8]): 59%
CI (SiHa [9]): 0.13
CI (SiHa [10]): 0.51
